Results on two compounds are retold here after paper PMC11628397 (Nature Synthesis, 2024).

Series [1] can be described thus: metabolic stability in human liver microsomes. On the technique in general: Microsomes from liver hold many membrane-bound enzymes, among them those of drug oxidation.
Series [2] is described as follows: kinetic solubility in phosphate-buffered saline, pH 7.4. The format is physicochemical. The following applies: pH 7.4, aqueous buffer, kinetic from dmso stock.
In a further series the test system is MCF-7 cells. The following applies: cited from earlier work.
The subject of series [3] is human cancer cell line MCF-7. The following applies: MCF-7 human cancer cell line; cited from earlier work.
Series [4] concerns human cancer cell line MCF-7. Briefly: resazurin reduction assay, growth inhibition of MCF-7. The format is cell-based. The following applies: MCF7, read-out: IC50, inhibition of the growth of MCF-7. Background: Alamar Blue is a resazurin reagent that responds to reducing activity.

Converted amounts (≈) assume the structure as drawn.

Consider `CCOC(=O)c1ccc(N)cc1` [Benzocaine], for which, in series [1], the “CLint, metabolic stability (as printed in text)” value turned out to be 83 mg/min/µL. Moreover, in series [2], the solubility (kinetic) worked out at 385 µM (≈ 63.6 µg/mL).
Take `CC(C)(C)c1ccc(CN2CCN(C(c3ccccc3)c3ccc(Cl)cc3)CC2)cc1` (stereo not drawn) [Buclizine]: the “cell differentiation, intracellular lipid droplets (in words)” value in the series on MCF-7 cells was “induced cell differentiation”. For the same compound, the solubility (kinetic) in series [2] is not above 1 µM. The “effect on cell growth (in words)” value in series [3] is listed as “cytostatic effect”. In series [4], the IC50 worked out at 31.3 ± 7.8 µM.

A word on the kinetic solubility: it is the concentration staying in solution when a stock, usually in DMSO, is diluted into the medium. By IC50 is commonly meant the point on the concentration scale where inhibition reaches its midpoint.
